Data published in US20260042753A1 (Merck Patent GmbH, priority 2019, published 2026).

Tests used:
[1] = biological target: mutant cKIT (560-576 and V654A) in GIST430/654 cell line (Homo sapiens (Human), UniProt P10721, DEL560-576/V654A); test: Cellular testing of cKIT mutant inhibitors: phospho-Y307-cKIT Luminex assay in GIST430/654 cells; assay type: cell-based; details: Table 1; cKIT autophosphorylation, compounds 45 min; read-out: GIST 430/654 IC50
Method in brief: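 Autophosphorylation of mutant cKIT at Y307 was quantified by a Luminex bead sandwich assay (total-cKIT capture, phosphospecific detection) after 45 min compound exposure in GIST430/654 cells, cultured in medium containing 100 nM imatinib. Signals were normalised to solvent (0.3% DMSO) controls and dose-response curves fitted for IC50.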

c-Kit(V654A) = c-Kit(V654A) (Homo sapiens, UniProt P10721, V654A); test: c-Kit(V654A) assay; assay type: biochemical; details: Table 1; 200 μM ATP
Method in brief: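 Radiometric filter-binding read-out: after 3% phosphoric acid stop, peptide-incorporated 33P on filtermat scintillation-counted. Enzyme: human c-Kit V654A, residues 544–end, N-terminal GST fusion.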

Chain of mutant cKIT (560-576 and V654A) in GIST430/654 cell line (P10721 other isoform, or with tags, fused parts or gaps V654A/del 1-25/del 560-576 limits assumed): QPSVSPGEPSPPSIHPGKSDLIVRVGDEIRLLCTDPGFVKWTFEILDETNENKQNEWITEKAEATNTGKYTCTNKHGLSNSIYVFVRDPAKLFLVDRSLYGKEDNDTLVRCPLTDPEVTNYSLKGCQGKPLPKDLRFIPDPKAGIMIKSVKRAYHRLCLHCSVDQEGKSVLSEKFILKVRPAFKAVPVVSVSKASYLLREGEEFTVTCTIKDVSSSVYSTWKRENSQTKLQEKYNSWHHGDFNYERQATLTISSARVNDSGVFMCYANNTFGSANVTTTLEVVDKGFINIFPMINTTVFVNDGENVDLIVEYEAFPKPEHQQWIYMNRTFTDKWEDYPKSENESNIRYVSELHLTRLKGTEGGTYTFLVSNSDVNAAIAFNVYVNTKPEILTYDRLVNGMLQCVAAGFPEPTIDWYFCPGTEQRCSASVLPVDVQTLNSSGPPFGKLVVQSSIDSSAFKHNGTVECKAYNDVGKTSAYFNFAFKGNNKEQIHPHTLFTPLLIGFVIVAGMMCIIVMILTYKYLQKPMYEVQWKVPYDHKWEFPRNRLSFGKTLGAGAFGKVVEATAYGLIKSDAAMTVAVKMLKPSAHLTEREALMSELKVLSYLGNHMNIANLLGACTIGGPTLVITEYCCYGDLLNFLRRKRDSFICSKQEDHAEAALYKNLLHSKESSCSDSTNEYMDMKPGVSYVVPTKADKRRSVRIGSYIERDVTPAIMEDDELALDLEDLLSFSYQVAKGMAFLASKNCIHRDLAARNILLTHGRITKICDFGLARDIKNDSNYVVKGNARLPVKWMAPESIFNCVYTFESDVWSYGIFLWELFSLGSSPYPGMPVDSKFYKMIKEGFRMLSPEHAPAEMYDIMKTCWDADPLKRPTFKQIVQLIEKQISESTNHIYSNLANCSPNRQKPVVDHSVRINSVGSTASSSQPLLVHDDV

Structure (SMILES) | IC50 [1] [nM] | IC50 (c-Kit(V654A)) [nM]
COCCOc1cc2[nH]nc(-c3cc(-c4ccc(C(=O)N5C6CC5CS(=O)(=O)C6)cc4)no3)c2cc1F [A108, 6-(4-{5-[5-fluoro-6-(2-methoxyethoxy)-1H-indazol-3-yl]-1,2-oxazol-3-yl}benzoyl)-3lambda6-thia-6-azabicyclo[3.1.1]heptane-3,3-dione] | 56 | 0.81
O=C(c1ccc(-c2cc(-c3n[nH]c4cc(OCCO)c(F)cc34)on2)cc1)N1CCNCC1 [A224, 2-[(5-fluoro-3-{3-[4-(piperazine-1-carbonyl)phenyl]-1,2-oxazol-5-yl}-1H-indazol-6-yl)oxy]ethan-1-ol] | 250 | 1.1
COCCOc1cc2[nH]nc(-c3cc(-c4nc(C(=O)N5CC(N6CCOCC6)C5)cs4)no3)c2cc1F [A84, 5-fluoro-6-(2-methoxyethoxy)-3-(3-{4-[3-(morpholin-4-yl)azetidine-1-carbonyl]-1,3-thiazol-2-yl}-1,2-oxazol-5-yl)-1H-indazole] | 1800 | 35
COCCOc1cc2[nH]nc(-c3cc(-c4ccc(C(=O)N5CC(N6CCOCC6)C5)cc4)on3)c2cc1F [A146, (4-{3-[5-fluoro-6-(2-methoxy-ethoxy)-1H-indazol-3-yl]-isoxazol-5-yl}-phenyl)-(3-morpholin-4-yl-azetidin-1-yl)-methanone] | 90 | 2.9
COCCOc1cc2[nH]nc(-c3cc(-c4ccc(C(=O)N5CCOC[C@@H]5CS(C)(=O)=O)cc4)no3)c2cc1F [A184, (4-{5-[5-fluoro-6-(2-methoxy-ethoxy)-1H-indazol-3-yl]-isoxazol-3-yl}-phenyl)-((R)-3-methanesulfonylmethyl-morpholin-4-yl)-methanone] | 120 | 1.1
COCCOc1cc2[nH]nc(-c3cc(-c4ccc(C(=O)N5CCC[C@@H]5CS(C)(=O)=O)cc4)no3)c2cc1F [A55, 5-fluoro-3-(3-{4-[(2R)-2-(methanesulfonylmethyl)pyrrolidine-1-carbonyl]phenyl}-1,2-oxazol-5-yl)-6-(2-methoxyethoxy)-1H-indazole] | 65 | 0.73
COCCOc1cc2[nH]nc(-c3cc(-c4ccc(C(=O)N5C[C@@H]6CN(C7COC7)C[C@@H]6C5)cc4)no3)c2cc1F [A216, 3-(3-{4-[(cis)-5-(oxetan-3-yl)-octahydropyrrolo[3,4-c]pyrrole-2-carbonyl]phenyl}-1,2-oxazol-5-yl)-5-fluoro-6-(2-methoxyethoxy)-1H-indazole] | 27 | 1.1
COCCOc1cc2[nH]nc(-c3cc(-c4ccc(C(=O)N5CC[C@@H]5C(C)(C)O)cc4)on3)c2cc1F [A147, (4-{3-[5-fluoro-6-(2-methoxy-ethoxy)-1H-indazol-3-yl]-isoxazol-5-yl}-phenyl)-[(R)-2-(1-hydroxy-1-methyl-ethyl)-azetidin-1-yl]-methanone] | 67 | 2.2
COCCOc1cc2[nH]nc(-c3cc(-c4ccc(C(=O)N5CCC[C@H]5CNS(C)(=O)=O)cc4)no3)c2cc1F [A90, N-{[(2S)-1-(4-{5-[5-fluoro-6-(2-methoxyethoxy)-1H-indazol-3-yl]-1,2-oxazol-3-yl}benzoyl)pyrrolidin-2-yl]methyl}methanesulfonamide] | 120 | 0.47
COc1cc2[nH]nc(-c3cc(-c4ccc(C(=O)N5C[C@H]6COC[C@H]6C5)cc4)no3)c2cc1F [A220, {4-[5-(5-Fluoro-6-methoxy-1H-indazol-3-yl)-isoxazol-3-yl]-phenyl}-(cis)-tetrahydro-furo[3,4-c]pyrrol-5-yl-methanone] | 160 | 2.2
COc1cc2[nH]nc(-c3cc(-c4ccc(C(=O)N5CC(N6CCOCC6)C5)cc4)no3)c2cc1F [A61, 5-fluoro-6-methoxy-3-(3-{4-[3-(morpholin-4-yl)azetidine-1-carbonyl]phenyl}-1,2-oxazol-5-yl)-1H-indazole] | 110 | 5.5
COCCNC(=O)c1ccc2c(-c3cc(-c4ccc(C(=O)N(C)C)cc4)no3)n[nH]c2c1 [A25, 3-{3-[4-(dimethylcarbamoyl)phenyl]-1,2-oxazol-5-yl}-N-(2-methoxyethyl)-1H-indazole-6-carboxamide] | 5700 | 30

Now from value to molecule:

IC50 [1] [nM] | IC50 (c-Kit(V654A)) [nM] | Structure (SMILES)
38 | 0.39 | COCCOc1cc2[nH]nc(-c3cc(-c4ccc(N5CCCN(C)CC5)cc4)no3)c2cc1F [A123, 5-fluoro-6-(2-methoxyethoxy)-3-{3-[4-(4-methyl-1,4-diazepan-1-yl)phenyl]-1,2-oxazol-5-yl}-1H-indazole]
120 | 4.1 | COCCOc1cc2[nH]nc(-c3cc(-c4ccc(C(=O)N5CCN(C)C(=O)C5)cc4)no3)c2cc1F [A116, 4-(4-{5-[5-fluoro-6-(2-methoxyethoxy)-1H-indazol-3-yl]-1,2-oxazol-3-yl}benzoyl)-1-methylpiperazin-2-one]
32 | 0.46 | COCCOc1cc2[nH]nc(-c3cc(-c4ccc(C(=O)N5CCC6(COC6)C5)cc4)no3)c2cc1F [A158, 5-fluoro-6-(2-methoxyethoxy)-3-[3-(4-{2-oxa-6-azaspiro[3.4]octane-6-carbonyl}phenyl)-1,2-oxazol-5-yl]-1H-indazole]
52 | 0.61 | COCCOc1cc2[nH]nc(-c3cc(-c4ccc(C5CCN(C)CC5(C)C)cc4)no3)c2cc1F (stereo not shown) [A231, 5-fluoro-6-(2-methoxy-ethoxy)-3-{3-[4-(1,3,3-trimethyl-piperidin-4-yl)-phenyl]-isoxazol-5-yl}-1H-indazole]
150 | 1.7 | COCCOc1cc2[nH]nc(-c3cc(-c4ccc(N5CCN(C)CC5)nc4)no3)c2cc1F [A39, 5-fluoro-6-(2-methoxyethoxy)-3-{3-[6-(4-methylpiperazin-1-yl)pyridin-3-yl]-1,2-oxazol-5-yl}-1H-indazole]
62 | 1.2 | COCCOc1cc2[nH]nc(-c3cc(-c4ccc(C(=O)N5CCOC[C@H]5COC)cc4)no3)c2cc1F [A111, 5-fluoro-6-(2-methoxyethoxy)-3-(3-{4-[(3R)-3-(methoxymethyl)morpholine-4-carbonyl]phenyl}-1,2-oxazol-5-yl)-1H-indazole]
150 | 1.5 | COCCOc1cc2[nH]nc(-c3cc(-c4ccc(OCCN5CCNCC5)cc4)no3)c2cc1F [A134, 5-fluoro-6-(2-methoxyethoxy)-3-(3-{4-[2-(piperazin-1-yl)ethoxy]phenyl}-1,2-oxazol-5-yl)-1H-indazole]
44 | 1.2 | COCCOc1cc2[nH]nc(-c3cc(-c4ccc(C(=O)N5CCC56COC6)c(C)c4)no3)c2cc1F [A169, (4-{5-[5-fluoro-6-(2-methoxy-ethoxy)-1H-indazol-3-yl]-isoxazol-3-yl}-2-methyl-phenyl)-(6-oxa-1-aza-spiro[3.3]hept-1-yl)-methanone]
66 | 2 | COCCOc1cc2[nH]nc(-c3cc(-c4ccc(C(=O)N5CCO[C@H](C)C5)cc4)no3)c2cc1F [A180, 5-fluoro-6-(2-methoxyethoxy)-3-(3-{4-[(2R)-2-methylmorpholine-4-carbonyl]phenyl}-1,2-oxazol-5-yl)-1H-indazole]
49 | 3.3 | COCCOc1cc2[nH]nc(-c3cc(-c4ccc(C(=O)N5CC(N6CCOCC6)C5)c(F)c4)no3)c2cc1F [A168, (2-fluoro-4-{5-[5-fluoro-6-(2-methoxy-ethoxy)-1H-indazol-3-yl]-isoxazol-3-yl}-phenyl)-(3-morpholin-4-yl-azetidin-1-yl)-methanone]
2200 | 32 | COCCOc1cc2[nH]nc(-c3cc(-c4ccc(C)nc4)no3)c2cc1F [A22, 5-fluoro-6-(2-methoxyethoxy)-3-[3-(6-methylpyridin-3-yl)-1,2-oxazol-5-yl]-1H-indazole]
130 | 1.5 | COCCOc1cc2[nH]nc(-c3cc(-c4ccc(C(=O)NCC(C)(C)N5CCOCC5)cc4)no3)c2cc1F [A164, 4-{5-[5-fluoro-6-(2-methoxyethoxy)-1H-indazol-3-yl]-1,2-oxazol-3-yl}-N-[2-methyl-2-(morpholin-4-yl)propyl]benzamide]
120 | 2.2 | COCCOc1cc2[nH]nc(-c3cc(-c4ccc(C(=O)N5CCOCC5)cc4)on3)c2cc1F [A43, (4-{3-[5-fluoro-6-(2-methoxy-ethoxy)-1H-indazol-3-yl]-isoxazol-5-yl}-phenyl)-morpholin-4-yl-methanone]
55 | 0.82 | COCCOc1cc2[nH]nc(-c3cc(-c4ccc(C(=O)N5CCC[C@@H]5CO)cc4)no3)c2cc1F [A52, [(2R)-1-(4-{5-[5-fluoro-6-(2-methoxyethoxy)-1H-indazol-3-yl]-1,2-oxazol-3-yl}benzoyl)pyrrolidin-2-yl]methanol]
82 | 2.6 | COCCOc1cc2[nH]nc(-c3cc(-c4ccc(C(=O)N5CCN(C)CC5)cc4)on3)c2cc1F [A113, (4-{3-[5-fluoro-6-(2-methoxy-ethoxy)-1H-indazol-3-yl]-isoxazol-5-yl}-phenyl)-(4-methyl-piperazin-1-yl)-methanone]
390 | 0.95 | COCCOc1cc2[nH]nc(-c3cc(-c4ccc(C(=O)N5CC(S(C)(=O)=O)C5)cc4)no3)c2cc1F [A29, 5-fluoro-3-{3-[4-(3-methanesulfonylazetidine-1-carbonyl)phenyl]-1,2-oxazol-5-yl}-6-(2-methoxyethoxy)-1H-indazole]
100 | 0.79 | COCCOc1cc2[nH]nc(-c3cc(-c4ccc(N5CCC(O)CC5)cc4)no3)c2cc1F [A128, 1-(4-{5-[5-fluoro-6-(2-methoxyethoxy)-1H-indazol-3-yl]-1,2-oxazol-3-yl}phenyl)piperidin-4-ol]
